Activity calls are given as the source filed them. No cut-off for these calls is given here.
What was measured:
A-375 [1] = test: Induction of apoptosis in human A-375 cells assessed as increase in expression level of C-caspase-3 measured after 24 hrs by Western blotting analysis; type: functional, cell-based; settings: dose 40-120 nM, DDE = dose-dependent effect
A-375 [2] = test: Induction of cell cycle arrest in human A-375 cells assessed as accumulation of cells at G1 phase at 40 nM incubated for 24 hrs by PI based flow cytometric analysis (RVB = 52.94%); type: functional
HCT-116 [3] = test: Cytotoxicity against human HCT-116 cells expressing high level of topoisomerase I/II measured after 72 hrs by MTT assay; type: functional, cell-based; settings: HCT-116, 72 h
A-375 [4] = test: Induction of cell cycle arrest in human A-375 cells assessed as accumulation of cells at G2 phase at 20 nM incubated for 24 hrs by PI based flow cytometric analysis (RVB = 20.34%); type: functional
A-375 [5] = test: Induction of apoptosis in human A-375 cells assessed as […] at 20 to 80 nM measured after 24 hrs by Annexin V-FITC and DAPI staining based flow cytometric analysis; type: functional; settings: dose 20-80 nM
[6] = Microsomal stability in mouse liver microsomes assessed as half life measured at 2 ug/ml upto 60 mins in presence of NADPH generating system and UGT incubation system by phase II metabolic stability kit method; type: ADME, Microsome; settings: dose 2 µg/ml
[7] = In vivo acute toxicity in Balb/C mouse assessed as pathological damage in kidney at 50 mg/kg, iv administered once per 2 days for 7 days measured 24 hrs after last dose by H and E staining method; type: organism-based; settings: 168 h, time 7 day
A-375 [8] = test: Antimigratory activity in human A-375 cells assessed as reduction in cell migration at 10 to 40 nM incubated for 24 hrs by crystal violet staining method; type: functional, cell-based; settings: dose 10-40 nM
[9] = target: DNA topoisomerase 2-alpha (Homo sapiens) (UniProt P11388); test: Inhibition of human DNA topoisomerase II-alpha relaxation activity at 100 uM incubated for 30 mins by chemiDoc system
DNA topoisomerase 2-alpha (Homo sapiens), sequence (P11388 whole entry): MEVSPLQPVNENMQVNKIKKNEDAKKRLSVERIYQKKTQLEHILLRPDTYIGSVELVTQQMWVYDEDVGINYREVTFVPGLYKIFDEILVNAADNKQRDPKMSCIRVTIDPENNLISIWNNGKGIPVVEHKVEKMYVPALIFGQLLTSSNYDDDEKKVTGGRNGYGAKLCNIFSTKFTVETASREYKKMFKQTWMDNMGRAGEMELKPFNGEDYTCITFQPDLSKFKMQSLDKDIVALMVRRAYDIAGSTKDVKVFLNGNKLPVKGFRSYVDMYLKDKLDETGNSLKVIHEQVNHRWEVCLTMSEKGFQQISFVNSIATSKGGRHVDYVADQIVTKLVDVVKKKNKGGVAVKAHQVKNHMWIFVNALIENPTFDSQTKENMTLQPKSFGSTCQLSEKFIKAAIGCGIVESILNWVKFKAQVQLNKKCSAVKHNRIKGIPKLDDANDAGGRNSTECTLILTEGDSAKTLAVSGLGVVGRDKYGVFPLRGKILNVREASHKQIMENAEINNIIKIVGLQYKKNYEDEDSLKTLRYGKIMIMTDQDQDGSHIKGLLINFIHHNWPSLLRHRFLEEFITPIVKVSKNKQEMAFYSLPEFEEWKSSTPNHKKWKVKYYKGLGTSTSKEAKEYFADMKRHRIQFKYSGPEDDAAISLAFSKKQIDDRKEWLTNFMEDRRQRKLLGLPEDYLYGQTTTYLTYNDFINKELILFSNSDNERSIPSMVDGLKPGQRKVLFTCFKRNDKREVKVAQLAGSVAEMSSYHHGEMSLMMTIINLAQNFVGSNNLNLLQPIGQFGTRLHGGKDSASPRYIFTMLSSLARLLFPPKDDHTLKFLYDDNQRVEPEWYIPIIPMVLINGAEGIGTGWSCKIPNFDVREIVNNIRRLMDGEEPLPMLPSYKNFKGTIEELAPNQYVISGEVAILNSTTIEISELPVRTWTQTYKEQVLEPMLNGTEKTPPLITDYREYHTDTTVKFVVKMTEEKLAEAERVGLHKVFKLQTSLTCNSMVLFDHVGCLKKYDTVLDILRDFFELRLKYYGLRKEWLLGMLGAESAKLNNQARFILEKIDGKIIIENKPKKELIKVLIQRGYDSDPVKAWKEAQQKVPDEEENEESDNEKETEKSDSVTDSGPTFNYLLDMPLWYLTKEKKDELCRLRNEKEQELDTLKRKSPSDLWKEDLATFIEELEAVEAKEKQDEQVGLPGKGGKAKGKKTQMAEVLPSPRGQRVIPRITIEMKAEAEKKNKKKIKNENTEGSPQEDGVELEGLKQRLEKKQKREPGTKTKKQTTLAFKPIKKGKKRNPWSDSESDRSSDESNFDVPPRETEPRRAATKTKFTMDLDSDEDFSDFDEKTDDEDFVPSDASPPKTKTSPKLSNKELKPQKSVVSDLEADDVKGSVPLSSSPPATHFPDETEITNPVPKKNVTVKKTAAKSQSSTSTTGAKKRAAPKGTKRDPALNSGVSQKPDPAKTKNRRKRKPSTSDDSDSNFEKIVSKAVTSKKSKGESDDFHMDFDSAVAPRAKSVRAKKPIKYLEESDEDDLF

[10] = Half life in Kunming mouse plasma at 10 mg/kg, iv administered as single dose measured after 5 to 360 mins by HPLC analysis; type: ADME, organism-based; settings: time 5-360 min
[11] = In vivo acute toxicity in Balb/C mouse assessed as pathological damage in heart at 50 mg/kg, iv administered once per 2 days for 7 days measured 24 hrs after last dose by H and E staining method; type: organism-based; settings: 168 h, time 7 day
MCF7 = test: Inhibition of colony formation in human MCF7 cells at 20 to 40 nM incubated for 48 hrs by crystal violet staining method; type: functional, cell-based; settings: dose 20-40 nM
[12] = Selectivity index, ratio of IC50 for human HEK293T cells to IC50 for human A-375 cells; type: toxicity; settings: HEK293T cells and A-375 cells, read-out: Ratio IC50
[13] = target: T1, DNA topoisomerase 1 (Homo sapiens) (UniProt P11387); test: Inhibition of DNA topoisomerase I (unknown origin) relaxation activity at 100 uM incubated for 30 mins by chemiDoc system
T1 sequence (whole entry): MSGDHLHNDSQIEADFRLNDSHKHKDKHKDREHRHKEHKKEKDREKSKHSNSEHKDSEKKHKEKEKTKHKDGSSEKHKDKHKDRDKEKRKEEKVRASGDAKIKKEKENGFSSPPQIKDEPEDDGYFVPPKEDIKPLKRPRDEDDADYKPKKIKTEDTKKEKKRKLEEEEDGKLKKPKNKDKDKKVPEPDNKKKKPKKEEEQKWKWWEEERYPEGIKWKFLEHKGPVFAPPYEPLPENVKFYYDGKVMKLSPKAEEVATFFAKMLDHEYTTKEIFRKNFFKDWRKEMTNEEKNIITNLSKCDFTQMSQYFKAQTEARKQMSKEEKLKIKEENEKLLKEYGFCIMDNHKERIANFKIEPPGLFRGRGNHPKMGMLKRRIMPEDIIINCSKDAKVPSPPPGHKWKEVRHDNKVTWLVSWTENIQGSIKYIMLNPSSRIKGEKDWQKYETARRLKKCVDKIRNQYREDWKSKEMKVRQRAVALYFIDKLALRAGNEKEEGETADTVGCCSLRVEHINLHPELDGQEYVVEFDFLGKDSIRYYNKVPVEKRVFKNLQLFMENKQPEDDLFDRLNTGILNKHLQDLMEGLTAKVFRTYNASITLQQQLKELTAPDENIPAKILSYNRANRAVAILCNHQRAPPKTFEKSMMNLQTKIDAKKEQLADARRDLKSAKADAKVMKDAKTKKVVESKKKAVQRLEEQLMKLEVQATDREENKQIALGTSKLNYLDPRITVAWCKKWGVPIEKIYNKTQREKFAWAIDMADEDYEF

A-375 [14] = test: Induction of cell cycle arrest in human A-375 cells assessed as accumulation of cells at S phase at 80 nM incubated for 24 hrs by PI based flow cytometric analysis (RVB = 26.73%); type: functional
HCT-116 [15] = test: Inhibition of colony formation in human HCT-116 cells at 20 to 40 nM incubated for 48 hrs by crystal violet staining method; type: functional, cell-based; settings: dose 20-40 nM
[16] = In vivo acute toxicity in Balb/C mouse assessed as tolerability at 50 mg/kg, iv administered once per 2 days for 7 days measured every other day; type: organism-based; settings: 168 h, time 7 day
[17] = target: T1, DNA topoisomerase 1 (Homo sapiens); test: Poison activity at human topoisomerase I assessed as stabilization of enzyme-DNA cleavage complex by measuring nicked DNA formation at 100 uM after 60 mins by agarose gel electrophoresis method
[18] = Metabolic stability in mouse plasma upto 5 hrs by HPLC-UV analysis; type: ADME, cell-free
[19] = target: DNA topoisomerase 2-alpha (Homo sapiens) (UniProt P11388); test: Poison activity at human topoisomerase II-alpha assessed as stabilization of enzyme-DNA cleavage complex by measuring nicked DNA formation at 100 uM after 60 mins by agarose gel electrophoresis method
A-375 [20] = test: In vivo induction of apoptosis in human A-375 cells xenografted in BALB/c nude mouse assessed as increase in C-caspase-3 level treated after 7 days of tumor implantation on right flank subcutaneously at 10 to 20 mg/kg, iv administered once per 2 days for 14 days by measuring TUNEL positive cells under a light microscope; type: functional, organism-based; settings: dose 10-20 mg/kg, time 14.0 day
[21] = Aqueous solubility of the compound in saline equilibrating for 24 hrs by HPLC analysis; type: physicochemical
HCT-116 [22] = test: Antiproliferative activity against doxorubicin resistant human HCT-116 cells measured after 72 hrs by MTT assay; type: functional, cell-based; settings: HCT-116, 72 h
[23] = Clearance in Kunming mouse plasma at 10 mg/kg, iv administered as single dose measured after 5 to 360 mins by HPLC analysis; type: ADME, organism-based; settings: time 5-360 min
A-375 [24] = test: In vivo antitumor activity against human A-375 cells xenografted in BALB/c nude mouse assessed as decrease in tumor volume treated after 7 days of tumor implantation on right flank subcutaneously at 10 to 20 mg/kg, iv administered once per 2 days for 14 days measured once every two days; type: functional, organism-based; settings: dose 10-20 mg/kg, time 14.0 day
A-375 [25] = test: Induction of cell cycle arrest in human A-375 cells assessed as accumulation of cells at G1 phase at 20 nM incubated for 24 hrs by PI based flow cytometric analysis (RVB = 52.94%); type: functional
[26] = Cmax in Kunming mouse plasma at 10 mg/kg, iv administered as single dose measured after 5 to 360 mins by HPLC analysis; type: ADME, organism-based; design: dose 10 mg/kg, time upper 360 min, time lower 5 min, route iv
SH-SY5Y = test: Cytotoxicity against human SH-SY5Y cells expressing low level of topoisomerase I/II measured after 72 hrs by MTT assay; type: functional, cell-based

With O=C1c2c[n+]([O-])c3ccccc3c2C(=O)c2c1c1ccccc1n2Cc1cn([C@@H]2C[C@H](O)[C@@H](CO)O2)nn1 as the molecule, how does the Activity (A-375 [1]) read?
Its Activity is “Dde”.

What about the Activity (A-375 [2]) of the same molecule?
The Activity was 28.94%.

And the IC50 (HCT-116 [3])?
Its IC50 is 50 nM.

And the Activity (A-375 [4])?
Its Activity is 29.19%.

And the Activity (A-375 [5])?
Its Activity is 38.36%.

What about the half-life at 2 ug/ml [6] of the same molecule?
Its half-life at 2 ug/ml is 40 min.

And the Activity [7]?
Its Activity is “Non-Toxic”.

What about the Activity (A-375 [8]) of the same molecule?
The Activity was “Active”.

What about the inhibition [9] of the same molecule?
The inhibition was “Active”.

What about the half-life [10] of the same molecule?
Its half-life is 151 min.

What about the Activity [11] of the same molecule?
Its Activity is “Non-Toxic”.

What about the inhibition (MCF7) of the same molecule?
Its inhibition is “Active”.

And the selectivity ratio [12]?
The selectivity ratio was 40.

And the inhibition [13]?
The inhibition was “Active”.

And the Activity (A-375 [14])?
The Activity was 58.13%.

What about the inhibition (HCT-116 [15]) of the same molecule?
Its inhibition is “Active”.

And the Activity [16]?
The Activity was “Non-Toxic”.

What about the Activity [17] of the same molecule?
The Activity was “Active”.

What about the Stability [18] of the same molecule?
Its Stability is “Stable”.

And the Activity [19]?
The Activity was “Active”.

And the Activity (A-375 [20])?
The Activity was “Active”.

And the solubility at 24 h [21]?
Its solubility at 24 h is > 5000 µg/mL.

What about the IC50 (HCT-116 [22]) of the same molecule?
Its IC50 is 70 nM.

What about the clearance [23] of the same molecule?
The clearance was 1 mL/min/kg.

And the Activity (A-375 [24])?
The Activity was “Active”.

And the Activity (A-375 [25])?
The Activity was 32.45%.

And the Cmax [26]?
The Cmax was 27000 ng/mL.

What about the IC50 (SH-SY5Y) of the same molecule?
Its IC50 is 150 nM.

Reference: ChEMBL document CHEMBL5154929, “Optimization of the Natural Product Calothrixin A to Discover Novel Dual Topoisomerase I and II Inhibitors with Improved Anticancer Activity” (J Med Chem, 2022)
